# Patent US20220404374A1, “METHOD FOR DETERMINING WHETHER OR NOT A SUBJECT HAS A PARKINSONIAN CONDITION” (UNIVERSITE DU LUXEMBOURG, priority 2019, published 2022)
# Legend:
# [1] = test system: HiTox strains of yeast expressing human alpha-synuclein; assay: toxicity assays of 2-HP in HiTox strains of yeast expressing human alpha-synuclein (growth phenotyping); assay type: cell-based
# Description: Yeast cells were grown in synthetic complement (SC) media containing 6.7 g/L yeast nitrogen base without amino acids, 5 g/L ammonium sulfate supplemented with 2 g/L SC. Media was autoclaved and the carbon source (8% raffinose or galactose) was added to a final concentration of 2%.
# Four fresh single colonies of the Hitox strain and its respective control strain were inoculated from SC-2% glucose plates into 5 mL SC-2% raffinose and incubated overnight with shaking (200 rpm) at 30° C. After ≈20 h, overnight cultures were diluted to OD 0.5 and 2 μL of the yeast cultivation was added to 78 μL drug containing media to a final optical density of 0.0125 in a 384-well microplate. 2-HP was diluted in SC-2% raffinose/galactose and tested at different concentrations (1-100 mM). Finally, the plates are measured in a microplate reader (TECAN™ Infinite M200Pro), at an interval of 10 minutes during 72 h at 30° C. Yeast growth phenotyping was performed as previous described (Jung et al. 2015). Final biomass was corrected using the GATHODE software (Jung et al. 2015). The OD600 at 48 h was taken for the quantification.
# enteric neurons = assay: toxicity of 2-HP in enteric neurons (MTT cell viability assay); assay type: cell-based
# Description: Enteric neurons were cultured in differentiation medium, consisting on Neurobasal (Invitrogen, 21103049) supplemented with 1:200 N2 (Invitrogen, 17502048), 1:100 L-Glutamine (Invitrogen, 25030-024), 1:100 B-27 without Vitamin A (Life Technologies, 12587-010), 1:100 Penicillin/Streptomycin (Invitrogen, 15140122), 25 ng/mL GDNF (Peprotech, 450-10) and 100 μM Ascorbic Acid (Sigma, A5960). Cells were cultured for 21 days in a 6-well plate, then detached with Accutase (Sigma, A6964), and replated into a 96-well plate. Cells were maintained under differentiating conditions until day 31, when they were treated with increasing concentrations of 2-hydroxypyridine (Sigma, H56800). Tested concentrations were as follows: 1 μM, 3 μM, 6 μM, 10 μM, 30 μM, 60 μM, 100 μM, 300 μM, 600 μM, 1 mM and 3 mM.
# 2-hydroxypyridine was reconstituted to 10 mM in the differentiation medium described above.
# Cells were treated for 24 h, then cell viability was assessed performing a Tetrazolium (MTT) assay. Thiazolyl Blue tetrazolium Bromide (Sigma, M5655) was reconstituted to a 5 mg/mL solution in differentiation media and filtered. 10 μL of the solution were then added to every well containing 100 μL of media. Plate was incubated for 2 h in a normal incubator (37° C., 5% CO2). […] Cells were disaggregated by pipetting vigorously and absorbance was read at 570 nm, using the microplate Cytation 5M reader (Biotek).
# IL-1b mRNA expression = IL-1b mRNA expression (qPCR) in murine bone-marrow derived macrophages; assay type: cell-based; settings: 10 mM 2-HP, murine BMDMs
# Description: NLRP3 inflammasome activation is thought to play a role in the pathogenesis of neurodegenerative disorders, and increased levels of this inflammasome and of the related cytokine IL-1b have been detected in Parkinson's patients (Guan & Han, 2020). […] Inflammasome activation was evaluated with qPCR for IL-1b expression (normalized to β-actin), considering the fold change relative to 0 mM 2-HP of each time point.
# wildtype mice = assay: adhesive removal test in mice after 2-HP injection into the brain; assay type: in vivo; settings: higher 2-HP concentrations injected into the brain, 15 days post-injection, vs PBS
# Description: The in vivo work testing for effects of 2-HP in a mouse model lead to results from a small-scale 15-day experiment. In this experiment, 2-HP was injected at several concentrations (5, 50 and 100 mM) into the brain of transgenic mice overexpressing human alpha-synuclein, and of wildtype control mice.
# [2] = control strain, higher concentration of 2-HP (FIG. 3C)
compound,measurement,setting,value
"Oc1ccccn1 [2-HP, 2-hydroxypyridine]",dose at which 2-HP is selectively toxic to transgenic alpha-synuclein expressing yeast,[1]; HiTox yeast expressing human alpha-synuclein vs control strain,1 mM
same,lag time of growth curve,[1]; [2],prolonged
same,yield of growth curve,[1]; [2],unaffected
same,"toxic dose-response, galactose","[1]; galactose, alpha-synuclein induced (FIG. 3B), HiTox strains vs control strain","A toxic dose-response can be observed in the HiTox strains, but not in the control strain"
same,"toxic dose-response, raffinose","[1]; raffinose, alpha-synuclein not induced (FIG. 3A)",A toxic dose-response can be observed
same,toxicity on enteric neurons at 3 mM,enteric neurons,significant changes
same,LD50,"enteric neurons; enteric neurons, 24 h treatment, MTT",around 3 mM
same,"increase in IL-1b mRNA (fold change relative to 0 mM 2-HP, normalized to β-actin)",IL-1b mRNA expression; 3 hours,3.2 fold
same,"increase in IL-1b mRNA (fold change relative to 0 mM 2-HP, normalized to β-actin)",IL-1b mRNA expression; 24 hours,1.5 fold
same,performance in the adhesive removal test (sensorimotor function),wildtype mice,perform worse
